Results from ChEMBL document CHEMBL4673401 (ACS Med Chem Lett, 2021).

Columns and labels:
[1] = molecular target: T1, Indoleamine 2,3-dioxygenase 1 (Homo sapiens, UniProt P14902); assay: Inhibition of human IDO1 expressed in Escherichia coli Rosetta using tryptophan as substrate incubated for 1 hr by methylene blue based assay
[2] = molecular target: T1, Indoleamine 2,3-dioxygenase 1; assay: Inhibition of IDO1 in IFNgamma-stimulated human HeLa cells using L-tryptophan as substrate measured after 48 hrs
[3] = molecular target: Tryptophan 2,3-dioxygenase (Homo sapiens, UniProt P48775); assay: Inhibition of human TDO expressed in Escherichia coli Rosetta using tryptophan as substrate incubated for 1 hr by methylene blue based assay
[4] = Cmax in Beagle dog at 2 mg/kg, po measured up to 24 hrs; assay type: ADME, organism-based, Canis lupus familiaris; set-up: route oral, dose 2 mg/kg, time <=24; conditions: in vivo
[5] = Half life in Sprague-Dawley rat at 3 mg/kg, po measured up to 24 hrs; assay type: ADME, organism-based; conditions: in vivo
[6] = AUC in Beagle dog at 2 mg/kg, po measured up to 24 hrs; assay type: ADME, organism-based, Canis lupus familiaris; set-up: route oral, dose 2 mg/kg, time <=24; conditions: in vivo
[7] = AUC in Sprague-Dawley rat at 3 mg/kg, po measured up to 24 hrs; assay type: ADME, organism-based; set-up: route oral, dose 3 mg/kg, time <=24; conditions: in vivo
[8] = Half life in Beagle dog at 2 mg/kg, po measured up to 24 hrs; assay type: ADME, organism-based, Canis lupus familiaris; conditions: in vivo
[9] = Cmax in Sprague-Dawley rat at 3 mg/kg, po measured up to 24 hrs; assay type: ADME, organism-based; set-up: route oral, dose 3 mg/kg, time <=24; conditions: in vivo

T1 sequence (P14902 whole entry): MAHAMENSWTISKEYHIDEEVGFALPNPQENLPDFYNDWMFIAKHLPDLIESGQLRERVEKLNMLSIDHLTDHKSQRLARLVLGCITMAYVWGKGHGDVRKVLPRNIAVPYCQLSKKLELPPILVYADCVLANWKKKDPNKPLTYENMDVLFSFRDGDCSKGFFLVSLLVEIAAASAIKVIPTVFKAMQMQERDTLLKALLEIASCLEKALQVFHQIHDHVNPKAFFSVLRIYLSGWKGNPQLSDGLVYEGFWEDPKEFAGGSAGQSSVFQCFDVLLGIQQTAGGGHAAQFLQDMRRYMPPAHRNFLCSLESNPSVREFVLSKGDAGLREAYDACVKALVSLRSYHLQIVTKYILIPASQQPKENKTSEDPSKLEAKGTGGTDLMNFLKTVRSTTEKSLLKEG
Sequence of Tryptophan 2,3-dioxygenase (P48775 whole entry): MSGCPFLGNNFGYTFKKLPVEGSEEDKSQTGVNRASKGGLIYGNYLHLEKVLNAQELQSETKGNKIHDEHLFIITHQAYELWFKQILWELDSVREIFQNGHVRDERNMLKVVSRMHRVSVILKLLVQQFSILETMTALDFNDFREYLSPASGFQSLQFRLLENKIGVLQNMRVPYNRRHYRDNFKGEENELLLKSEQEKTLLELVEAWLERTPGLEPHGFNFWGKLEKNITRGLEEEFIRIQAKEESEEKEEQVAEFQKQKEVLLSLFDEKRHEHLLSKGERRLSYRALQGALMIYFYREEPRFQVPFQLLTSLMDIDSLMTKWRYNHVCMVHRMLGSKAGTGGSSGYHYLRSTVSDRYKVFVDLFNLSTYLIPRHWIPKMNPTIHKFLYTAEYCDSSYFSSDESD

| Structure (SMILES) | IC50 [1] [nM] | IC50 [2] [nM] | IC50 [3] [nM] | Cmax [4] [ng/mL] | half-life [5] [h] | AUC at 24 h [6] [ng·h/mL] | AUC at 24 h [7] [ng·h/mL] | half-life [8] [h] | Cmax [9] [ng/mL] |
| --- | --- | --- | --- | --- | --- | --- | --- | --- | --- |
| O=C(/C(=N/O)Nc1ccc(F)c(Br)c1)C1CCCCC1 | 132 | 63 | 79300 |  |  |  |  |  |  |
| O=C(/C(=N/O)Nc1ccc(F)c(Br)c1)[C@H]1CC[C@H](NS(=O)(=O)Nc2ccccc2)CC1 | 102 | 291 | > 100000 |  |  |  |  |  |  |
| O=C(/C(=N/O)Nc1ccc(F)c(Br)c1)c1cccs1 | 117 | 272 | 63100 |  |  |  |  |  |  |
| NS(=O)(=O)NC[C@H]1CC[C@H](C(=O)/C(=N/O)Nc2ccc(F)c(Br)c2)CC1 | 198 | 21 | 58700 |  |  |  |  |  |  |
| O=C(/C(=N/O)Nc1ccc(F)c(Br)c1)C1CCN(C(=O)c2ccccc2)CC1 | 106 | 281 | > 100000 |  |  |  |  |  |  |
| O=C(/C(=N/O)Nc1ccc(F)c(Br)c1)c1cncs1 | 51 | 1770 | 11800 |  |  |  |  |  |  |
| O=C(/C(=N/O)Nc1ccc(F)c(Br)c1)c1ccccc1 | 410 | 1430 | 80000 |  |  |  |  |  |  |

Compounds with a lower IC50 [1], results first:

| IC50 [1] [nM] | IC50 [2] [nM] | IC50 [3] [nM] | Cmax [4] [ng/mL] | half-life [5] [h] | AUC at 24 h [6] [ng·h/mL] | AUC at 24 h [7] [ng·h/mL] | half-life [8] [h] | Cmax [9] [ng/mL] | Structure (SMILES) |
| --- | --- | --- | --- | --- | --- | --- | --- | --- | --- |
| 43 | 28 | 89800 |  |  |  |  |  |  | O=C(/C(=N/O)Nc1ccc(F)c(Br)c1)C1CCN(C(=O)NCc2ccccc2)CC1 |
| 24 | 262 | > 100000 |  |  |  |  |  |  | O=C(/C(=N/O)Nc1ccc(F)c(Br)c1)C1CCN(S(=O)(=O)NCc2ccccc2)CC1 |
| 14 | 15 | > 100000 | 140 | 5.08 | 255 | 1030 | 1.1 | 173 | Cn1cc(-c2ccc(NC(=O)N3CCC(C(=O)/C(=N/O)Nc4ccc(F)c(Br)c4)CC3)cc2)cn1 |
